The target of the first experiment is T1, Sodium-dependent dopamine transporter (Homo sapiens, UniProt Q01959). Briefly: Inhibition of DAT at 1 uM.
Sodium-dependent serotonin transporter, sequence (P31645 whole entry): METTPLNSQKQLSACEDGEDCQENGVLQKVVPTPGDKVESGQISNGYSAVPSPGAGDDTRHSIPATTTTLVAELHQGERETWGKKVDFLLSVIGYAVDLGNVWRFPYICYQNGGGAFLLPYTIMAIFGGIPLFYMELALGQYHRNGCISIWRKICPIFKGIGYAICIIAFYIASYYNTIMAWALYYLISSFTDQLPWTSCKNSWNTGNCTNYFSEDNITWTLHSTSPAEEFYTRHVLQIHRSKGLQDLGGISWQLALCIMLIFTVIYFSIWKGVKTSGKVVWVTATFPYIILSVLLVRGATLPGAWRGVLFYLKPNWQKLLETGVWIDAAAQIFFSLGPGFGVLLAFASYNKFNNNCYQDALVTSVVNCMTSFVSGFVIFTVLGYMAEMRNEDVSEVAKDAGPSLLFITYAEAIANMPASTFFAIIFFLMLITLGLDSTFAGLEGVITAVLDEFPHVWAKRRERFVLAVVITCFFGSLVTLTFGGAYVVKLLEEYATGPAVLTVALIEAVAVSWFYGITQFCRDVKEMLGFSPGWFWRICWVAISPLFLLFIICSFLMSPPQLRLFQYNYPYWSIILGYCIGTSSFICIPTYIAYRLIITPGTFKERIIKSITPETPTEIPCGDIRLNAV
T1 sequence (Q01959 whole entry): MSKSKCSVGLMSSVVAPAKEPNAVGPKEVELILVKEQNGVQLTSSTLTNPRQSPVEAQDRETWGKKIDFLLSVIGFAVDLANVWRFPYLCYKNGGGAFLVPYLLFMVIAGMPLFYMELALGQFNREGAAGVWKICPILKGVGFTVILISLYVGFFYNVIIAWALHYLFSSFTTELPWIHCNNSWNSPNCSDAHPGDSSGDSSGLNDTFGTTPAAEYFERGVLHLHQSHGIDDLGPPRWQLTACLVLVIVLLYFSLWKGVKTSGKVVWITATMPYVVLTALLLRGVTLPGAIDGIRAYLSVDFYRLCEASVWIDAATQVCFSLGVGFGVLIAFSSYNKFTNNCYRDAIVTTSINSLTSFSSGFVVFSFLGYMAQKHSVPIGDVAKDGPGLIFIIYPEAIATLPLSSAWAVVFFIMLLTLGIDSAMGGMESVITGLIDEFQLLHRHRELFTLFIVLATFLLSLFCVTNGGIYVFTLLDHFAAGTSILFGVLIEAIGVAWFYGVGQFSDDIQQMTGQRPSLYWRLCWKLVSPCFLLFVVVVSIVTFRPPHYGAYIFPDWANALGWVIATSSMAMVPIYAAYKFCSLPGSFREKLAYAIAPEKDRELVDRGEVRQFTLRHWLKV
T2 sequence (P23975 whole entry): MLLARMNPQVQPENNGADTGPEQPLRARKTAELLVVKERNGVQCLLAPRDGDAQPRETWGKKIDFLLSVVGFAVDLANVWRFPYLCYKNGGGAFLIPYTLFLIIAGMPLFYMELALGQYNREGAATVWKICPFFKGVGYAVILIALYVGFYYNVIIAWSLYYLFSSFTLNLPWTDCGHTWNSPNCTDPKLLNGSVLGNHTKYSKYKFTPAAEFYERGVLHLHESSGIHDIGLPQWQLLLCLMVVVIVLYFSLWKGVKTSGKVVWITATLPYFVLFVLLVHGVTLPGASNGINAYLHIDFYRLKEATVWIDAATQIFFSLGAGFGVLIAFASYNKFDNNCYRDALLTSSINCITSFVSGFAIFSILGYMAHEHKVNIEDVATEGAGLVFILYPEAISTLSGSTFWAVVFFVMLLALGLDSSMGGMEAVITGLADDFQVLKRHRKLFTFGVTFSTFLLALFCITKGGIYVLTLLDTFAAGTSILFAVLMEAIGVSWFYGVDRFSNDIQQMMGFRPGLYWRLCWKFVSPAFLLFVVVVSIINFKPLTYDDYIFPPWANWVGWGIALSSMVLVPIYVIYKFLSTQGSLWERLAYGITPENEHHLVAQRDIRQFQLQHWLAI
`CN(C)CC1CC1c1ccc2cc(C#N)ccc2c1` (stereo unspecified): the inhibition was 41%.

For `CN(C)CC1CC1c1cccc2c(C#N)cccc12` (stereo unspecified), the inhibition is 9.5%.

For `CN(C)CC1CC1c1cccc2cc(C#N)ccc12` (stereo unspecified), the inhibition was determined as 16%.

`CN(C)CC1CC1c1ccc2cc(C#N)c(C#N)cc2c1` (stereo unspecified): the inhibition is 80%.

In the case of `CN(C)CC1CC1c1ccc2ccc(C#N)cc2c1` (racemic), the inhibition came to 83%.

With `CN(C)CC1CC1c1n[nH]c2ccc(C#N)cc12` (racemic), the inhibition worked out at 0%.

`CN(C)CC1CC1c1ccc2ccccc2c1` (single isomer, unassigned; (+)) [listing 1 of 2 here]: the inhibition came to 31%.

Regarding `CN(C)CC1CC1c1cccc2ccccc12` (single isomer, unassigned; (+)) [listing 1 of 2 here], the inhibition worked out at 12%.

On to `CN(C)CC1CC1c1csc2ccccc12` (stereo in doubt; (+)-6) [listing 1 of 2 here], for which the inhibition was determined as 24%.

Another experiment addresses Sodium-dependent serotonin transporter (Homo sapiens, UniProt P31645). Briefly: Inhibition of human SERT.
`CN(C)C[C@H]1C[C@@H]1c1c[nH]c2ccc(C#N)cc12` yielded an IC50 of 0.48 nM.

As for `CNCC1CC1c1cccc2cc(C#N)ccc12` (stereo unspecified), half-maximal inhibition (IC50) required 17 nM.

As for `CN(C)CC1CC1c1cnc2ccccc2c1` (stereo unspecified), half-maximal inhibition (IC50) was put at 130 nM.

In turn, `CCNCC1CC1c1cccc2cc(C#N)ccc12` (stereo unspecified) came in with an IC50 of 37 nM.

As for `CCN(CC)CC1CC1c1cccc2cc(C#N)ccc12` (stereo unspecified), 67 nM corresponded to half-maximal inhibition (IC50). Compared with the last molecule, the IC50 is about 1.8-fold higher.

For `CN(C)CC1CC1c1ccc2cc(C#N)ccc2c1` (stereo unspecified), the concentration for half-maximal inhibition (IC50) is 13 nM.

Take `CN(Cc1ccccc1)CC1CC1c1cccc2cc(C#N)ccc12` (stereo unspecified): the IC50 is 16 nM.

`CN(C)CC1CC1c1cccc2c(C#N)cccc12` (stereo unspecified) yielded an IC50 of 48 nM. This IC50 is about 3-fold higher than that of the molecule before.

On to `CNCC1CC1c1ccc2ccccc2c1` (stereo unspecified), for which the IC50 was determined as 52 nM.

Turning to `CCN(C)CC1CC1c1ccc2ccccc2c1` (stereo unspecified), the IC50 came out at 310 nM.

`CCN(CC)CC1CC1c1ccc2ccccc2c1` (stereo unspecified) returned an IC50 of 550 nM.

`CCN(C)CC1CC1c1cccc2ccccc12` (stereo unspecified) had a half-maximal inhibitory concentration (IC50) of 58 nM.

In turn, `N#Cc1ccc2c(C3CC3CN3CCCC3)cccc2c1` (stereo unspecified) had an IC50 of 51 nM.

`CCN(CC)CC1CC1c1cccc2ccccc12` (stereo unspecified) came in with an IC50 of 120 nM.

The molecule `CNCC1CC1c1cccc2ccccc12` (stereo unspecified) returned an IC50 of 89 nM.

For `CN(C)CC1CC1c1cccc2cc(C#N)ccc12` (stereo unspecified), the half-maximal inhibitory concentration (IC50) is 4.1 nM.

`CN(C)CC1CC1c1ccc2cc(C#N)c(C#N)cc2c1` (stereo unspecified) had an IC50 of 5.9 nM.

On to `CN(C)CC1CC1c1cncc2ccccc12` (stereo unspecified), for which the IC50 was > 1000 nM.

As to `CN(C)CC1CC1c1c[nH]c2ccc(C#N)cc12` (racemic), half-maximal inhibition (IC50) was put at 1.1 nM. That is a single-digit nanomolar value.

In turn, `CN(C)C[C@H]1C[C@@H]1c1c[nH]c2ccc(F)cc12` (racemic) registered an IC50 of 4.1 nM.

The molecule `CN(C)CC1CC1c1ccc2ccc(C#N)cc2c1` (racemic) gave an IC50 of 83 nM. Compared with the last molecule, the IC50 is about 20-fold higher.

Turning to `CN(C)C[C@H]1C[C@@H]1c1c[nH]c2ccccc12` (racemic), the IC50 turned out to be 99 nM.

Consider `CN(C)CC1CC1c1c[nH]c2ncccc12` (racemic), for which the midpoint of inhibition, the IC50, lay at 410 nM.

Molecule `CN(C)CC1CC1c1n[nH]c2ccc(C#N)cc12` (racemic) displayed an IC50 of 71 nM. Compared with the last molecule, the IC50 is about 5.8-fold lower.

Consider `CN(C)CC1CC1c1cnc2ccccn12` (racemic), for which the IC50 was > 1000 nM.

With `CN(C)CC1CC1c1ccc2ccccc2c1` (single isomer, unassigned; (+)) [listing 2 of 2 here], the IC50 came to 8.6 nM.

As to `CN(C)CC1CC1c1cccc2ccccc12` (single isomer, unassigned; (+)) [listing 2 of 2 here], half-maximal inhibition (IC50) was put at 18 nM.

`CN(C)CC1CC1c1ccc2ccccc2c1` (single isomer, unassigned; (-)) displayed an IC50 of 140 nM.

With `CN(C)CC1CC1c1cccc2ccccc12` (single isomer, unassigned; (-)), half-maximal inhibition (IC50) required 170 nM.

Regarding `CN(C)CC1CC1c1csc2ccccc12` (stereo in doubt; 6), the IC50 is 25 nM.

Consider `CN(C)CC1CC1c1cccc2ccccc12` (stereo in doubt; 9b), for which half-maximal inhibition (IC50) was put at 15 nM. Against the preceding molecule, the IC50 is about 1.7-fold lower.

On to `CN(C)CC1CC1c1ccc2ccccc2c1` (stereo in doubt; 10b), for which the IC50 was found to be 8.6 nM. This IC50 lies about 1.7-fold lower than the previous one.

Consider `CN(C)CC1CC1c1csc2ccccc12` (stereo in doubt; (+)-6) [listing 2 of 2 here], for which the IC50 turned out to be 55 nM.

Regarding `CN(C)CC1CC1c1csc2ccccc12` (stereo in doubt; (-)-6), it took 150 nM to reach half-maximal inhibition (IC50). This IC50 lies about 2.7-fold higher than the previous one.

For the next experiment, the target named is T1, Sodium-dependent dopamine transporter. Briefly: Inhibition of DAT.
`CN(C)CC1CC1c1ccc2cc(C#N)ccc2c1` (stereo unspecified): half-maximal inhibition (IC50) required 1100 nM. This lies in the single-digit micromolar range.

With `CN(C)CC1CC1c1cccc2c(C#N)cccc12` (stereo unspecified), half-maximal inhibition (IC50) required 12000 nM.

`CN(C)CC1CC1c1cccc2cc(C#N)ccc12` (stereo unspecified) displayed an IC50 of 8700 nM.

For the molecule `CN(C)CC1CC1c1ccc2ccc(C#N)cc2c1` (racemic), the IC50 was 260 nM.

Regarding `CN(C)CC1CC1c1n[nH]c2ccc(C#N)cc12` (racemic), the midpoint of inhibition, the IC50, lay at 44000 nM.

For `CN(C)CC1CC1c1ccc2ccccc2c1` (single isomer, unassigned; (+)) [listing 2 of 2 here], the IC50 turned out to be 2400 nM.

`CN(C)CC1CC1c1cccc2ccccc12` (single isomer, unassigned; (+)) [listing 2 of 2 here] registered an IC50 of 33000 nM.

A further experiment has as its target T2, Sodium-dependent noradrenaline transporter (Homo sapiens, UniProt P23975). As to the kind of experiment: Inhibition of NET at 1 uM.
As to `CN(C)CC1CC1c1ccc2cc(C#N)ccc2c1` (stereo unspecified), the inhibition came out at 69%.

Consider `CN(C)CC1CC1c1cccc2c(C#N)cccc12` (stereo unspecified), for which the inhibition amounted to 25%.

Turning to `CN(C)CC1CC1c1cccc2cc(C#N)ccc12` (stereo unspecified), the inhibition amounted to 20%.

Consider `CN(C)CC1CC1c1ccc2cc(C#N)c(C#N)cc2c1` (stereo unspecified), for which the inhibition was found to be 82%.

`CN(C)CC1CC1c1ccc2ccc(C#N)cc2c1` (racemic): the inhibition was 68%.

For the molecule `CN(C)CC1CC1c1n[nH]c2ccc(C#N)cc12` (racemic), the inhibition is -4.9%.

With `CN(C)CC1CC1c1ccc2ccccc2c1` (single isomer, unassigned; (+)) [listing 1 of 2 here], the inhibition came out at 18%.

For `CN(C)CC1CC1c1cccc2ccccc12` (single isomer, unassigned; (+)) [listing 1 of 2 here], the inhibition turned out to be 2.3%.

For the molecule `CN(C)CC1CC1c1csc2ccccc12` (stereo in doubt; (+)-6) [listing 1 of 2 here], the inhibition was 13%.

The next experiment deals with T2, Sodium-dependent noradrenaline transporter. As to the kind of experiment: Inhibition of NET.
On to `CN(C)CC1CC1c1ccc2cc(C#N)ccc2c1` (stereo unspecified), for which 560 nM corresponded to half-maximal inhibition (IC50).

`CN(C)CC1CC1c1cccc2c(C#N)cccc12` (stereo unspecified): the IC50 turned out to be 39000 nM.

For `CN(C)CC1CC1c1cccc2cc(C#N)ccc12` (stereo unspecified), the midpoint of inhibition, the IC50, lay at 19000 nM.

The molecule `CN(C)CC1CC1c1ccc2ccc(C#N)cc2c1` (racemic) registered an IC50 of 710 nM.

With `CN(C)CC1CC1c1n[nH]c2ccc(C#N)cc12` (racemic), the IC50 was > 100000 nM.

As to `CN(C)CC1CC1c1ccc2ccccc2c1` (single isomer, unassigned; (+)) [listing 2 of 2 here], 8700 nM corresponded to half-maximal inhibition (IC50).

`CN(C)CC1CC1c1cccc2ccccc12` (single isomer, unassigned; (+)) [listing 2 of 2 here] had an IC50 of 68000 nM.

The inhibition is the drop in the measured response relative to a control, in per cent. The IC50 is the concentration at which inhibition is half-maximal.
